Data reported in patent US8318801B2, “Cinnamic compounds and derivatives therefrom for the inhibition of histone deacetylase” (Naturewise Biotech & Medicals Corporation, priority 2009, dated 2012).
“Also recorded” adds a separate entry of the source.

Key:
Assay type in all cases: cell-based
[1] = tested on: Human breast cancer MCF-7 cells; assay: Inhibition of cancer cell growth and change of morphology
Procedure: (§1) Three cancer cell lines, Rat C6 giloma cells, Human breast cancer MCF-7 cells, and Human lung cancer A549 cells, were cultured in Dulbecco's modified Eagle's medium (DMEM; Gibco) containing 10% fetal bovine serum (FBS) and 1% penicillin/streptomycin. All three cell lines were maintained at 37° C. in a humidified atmosphere of 95% air and 5% CO2. For the experiments, the cells were seeded in 6-well plates. After 24 hours, the cells were treated with different concentrations of the various compounds.
(§2) Five cancer cell lines, Rat C6 giloma cells, Human breast cancer MCF-7 cells, Human glioma Hs683 cells, Human glioblastoma 05-MG cells, and Human lung cancer A549 cells, were cultured in Dulbecco's modified Eagle's medium (DMEM; Gibco) containing 10% fetal bovine serum (FBS) and 1% penicillin/streptomycin, and were kept at 37° C. in a humidified atmosphere of 95% air and 5% CO2. Human breast cancer. MDA-MB-231 cells were cultured in L-15 medium (Gibco) containing 10% fetal bovine serum (FBS), 1% penicillin/streptomycin, and 2 mM glutamine, and were maintained at 37° C. in a humidified atmosphere of 95% air and 0% CO2. For these experiments, the cells were seeded in 6-well plates or a 60-mm dish. After 24 hours, the cells were treated with different concentrations of the various compounds. […] Human glioblastoma 05-MG cells were treated with NBM-C-BCX-OS01 (1.0, 2.0, 4.0 μg/mL) and NBM-C-BMX-OS01 (1.0, 2.0, 4.0 μg/mL) for 72 hours (see FIG. 5(e)). […] The results were counted by a trypan blue exclusion assay (see FIG. 6(b)).

Rat C6 glioma cells = assay: as above; details: for inhibition of cell growth: Rat C6 glioma cells
Procedure: as §1, §2

[2] = tested on: acetyl-Histone H3 in Human lung cancer A549 cells; assay: Immunostaining of HDAC associated proteins; details: 7.5 μg/mL, 6 hrs (FIG. 3(c))
Procedure: (§3) Rat C6 glioma cells, Human breast cancer MCF-7 cells, and Human lung cancer A549 cells were seeded in 6-well plates. After 24 hrs of incubation in medium+10 BSA, Human breast cancer MCF-7 cells were treated with NBM-HB-OS01 (10.0 μg/mL) and vorinostat (SAHA, 5 μM) for 24 hours. Rat C6 glioma cells were treated with NBM-C-BX-OS01 (7.5 μg/mL) and vorinostat (SAHA, 5 μM) for 6 hours. Human lung cancer A549 cells were treated with NBM-C-BA-OS01 (7.5 μg/mL) and vorinostat (SAHA, 5 μM) for 6 hours. The treated cells were fixed in 80% methanol for 30 minutes and then washed 3 times with PBS solution. Cells were permeabilized with 0.3% Triton X-100 for 30 minutes, and then blocked in 10% fetal bovine serum (FBS) in PBS-T (0.1% Twin 20 in PBS) for 1 hour. The treated cells were detected with primary antibody against acetyl-Histone H3, acetyl-tubulin, and Gelsolin.

[3] = tested on: acetyl-Histone H3, acetyl-Histone H4, acetyl-tubulin, p21 in Human breast cancer MCF-7 cells; assay: Immunoblotting of hyperacetylated histone, tubulin and p21; details: 10 μg/mL (7.5 μg/mL elsewhere in the source) for 1, 2, 3 and 4 hrs (FIG. 2(d))
Procedure: (§4) Rat C6 glioma cells and Human breast cancer MCF-7 cells were seeded 5×10^5 cells in a 60-mm dish or 1×10^6 cells in a 100-mm dish. After 24 hours, Rat C6 glioma cells were treated with various concentrations of NBM-HB-OS01 (2.5, 5.0, 7.5, 10.0 μg/mL) for 72 hours and were treated with 10.0 μg/mL. NBM-HB-OS01 for 1, 2, 3, and 4 hours. Human breast cancer MCF-7 cells were treated with 7.5 μg/mL NBM-C-BX-OS01 for 1, 2, 3, and 4 hours.

[4] = tested on: acetyl-tubulin in Rat C6 glioma cells; assay: Immunostaining of HDAC associated proteins; details: 7.5 μg/mL, 6 hrs (FIG. 2(e))
Procedure: as §3

[5] = tested on: Human lung cancer A549 cells; assay: Inhibition of cancer cell growth
Procedure: as §1, §2

[6] = tested on: Human colon cancer HT-29 cells; assay: Inhibition of cancer cell growth; details: various concentrations, 48 hrs (FIG. 1(b))
[7] = tested on: acetyl-Histone H3, acetyl-Histone H4, acetyl-tubulin, p21 in Rat C6 glioma cells; assay: Immunoblotting of hyperacetylated histone, tubulin and p21
Procedure: as §4

[8] = tested on: p21 mRNA in Rat C6 glioma cells; assay: RT-PCR of cell-cycle related mRNA expression; details: 48 hrs, GAPDH internal control (FIG. 1(d))
Procedure: The cell-cycle related mRNA expression was examined by RT-PCR. The total RNA was isolated from the treated Rat C6 glioma cells using the RNeasy Mini Kit (Qiagen) as described by the manufacturer. The cDNA was produced from 500 ng of total RNA using ReverTra-Plus™ (TOYOBO).

[9] = tested on: Human lung cancer A549 cells; assay: Cell cycle analysis by flow cytometry (propidium iodide); details: A549 cells, 2.5, 5.0, 7.5, 10.0 μg/mL, 24 hours (FIG. 1(c))
Procedure: Human lung cancer A549 cells, Human glioma Hs683 cells and Human glioblastoma 05-MG cells were seeded 1×10^6 cells in a 100-mm dish. After 24 hours of incubation in DMEM+10% BSA, Human lung cancer A549 cells were treated with NBM-HB-OS01 (2.5, 5.0, 7.5, 10.0 μg/mL) for 24 hours and were treated with NBM-C-BCX-OS01 (2.5, 5.0, 7.5 μg/mL) and NBM-C-BMX-OS01 (2.5, 5, 7.5 μg/mL) for 72 hours. Human glioblastoma 05-MG cells were treated with NBM-C-BCX-OS01 (1.0, 2.0, 4.0 μg/mL) and NBM-C-BMX-OS01 (1.0, 2.0, 4.0 μg/mL) for 72 hours. Human glioma Hs683 cells were treated with NBM-C-BCX-OS01 (1.0, 2.0, 4.0 μg/mL). For cell cycle analysis, cells were fixed in 80% ethanol for 1 hour (or overnight) at −20° C. and then incubated with 2 μg/mL RNase A for 30 minutes at 37° C. Cells were stained with propidium iodide ([…] PI) in PBS and analyzed using a Becton Dickinson flow cytometer, BD FACScan and CellQuest acquisition and analysis programs. […] Human glioma Hs683 cells were treated with NBM-C-BCX-OS01 (1.0, 2.0, 4.0 μg/mL) for 72 hours.

[10] = tested on: Gelsolin in Human breast cancer MCF-7 cells; assay: Immunostaining of HDAC associated proteins; details: 10 μg/mL, 24 hrs (FIG. 1(g))
Procedure: as §3

[11] = various concentrations, 48 hrs (FIG. 1(a), 2(a))
[12] = Rat C6 glioma cells, 2.5, 5.0, 7.5, 10.0 μg/mL, 72 hrs, western blotting (FIG. 1(e))

## COc1ccc(/C=C/C(=O)Nc2ccccc2N)c(OCc2ccccc2)c1CC=C(C)C [NBM-C-BA-OS01, (E)-2-Benzoxy-3-prenyl-4-methoxy-N-(2-aminophenyl) cinamide]
[1]; MCF-7 cells, 2.5, 5.0, 7.5 μg/mL, 72 hrs (FIG. 3(a))
  changes in morphology: exhibited changes in morphology
Rat C6 glioma cells; 7.5 μg/mL, 48 hrs (FIG. 4)
  inhibition of cell growth: inhibited the Rat C6 glioma cell growth
Rat C6 glioma cells; Rat C6 glioma cells, 2.5, 5.0, 7.5 μg/mL, 72 hrs (FIG. 3(b))
  changes in morphology: exhibited changes in morphology
Rat C6 glioma cells; 24 hrs, NBM-C-BA-OS01 5 μg/mL, others 2.5, 5.0 μg/mL (FIG. 5(a))
  inhibition of cell growth: inhibited the cell growth
[2]
  acetylation of Histone H3 protein: Hyperacetylation of Histone H3 protein was detected; also recorded: could induce the HDAC associated proteins expression

## COc1ccc(/C=C\C(=O)NO)c(OCc2ccccc2)c1CC=C(C)C [NBM-C-BX-OS01, (Z)-2-Benzoxy-3-prenyl-4-methoxy-N-hydroxy-cinamide]
[1]; MCF-7 cells, various concentrations, 24 hrs (FIG. 2(b))
  inhibition of cell growth: Inhibition of cancer cells growth was shown; also recorded: arrested the cell growth
Rat C6 glioma cells; [11]
  inhibition of cell growth: Inhibition of cancer cells growth was shown; also recorded: arrested the cell growth
[3]
  expression of acetylated H3: increased in a dose-dependent manner
  expression of acetylated H4: increased in a dose-dependent manner
  expression of acetylated-tubulin: increased in a dose-dependent manner
  expression of p21: increased in a dose-dependent manner
[4]
  acetylated tubulin protein expression: Overexpression of acetylated tubulin protein was observed; also recorded: could induce the HDAC associated proteins expression
[5]; 72 hrs, NBM-C-BX-OS01 7.5, others 2.5, 5.0, 7.5 μg/mL (FIG. 5(b))
  cell growth inhibition: induced A549 cells growth inhibition in a dose-dependent manner; also recorded: induced A549 cell growth inhibition in dose-dependent amounts
[5]; various concentrations, 48 hrs (FIG. 2(c))
  inhibition of cell growth: Inhibition of cancer cells growth was shown; also recorded: arrested the cell growth

## COc1ccc(/C=C\C(=O)OCc2ccccc2)c(OCc2ccccc2)c1CCC(C)(C)O [NBM-HB-OS01]
[6]
  inhibition of cell growth: Inhibition of cancer cell growth
[6]; listed as NBM-HB-HB-OS01
  inhibition of cell growth: Inhibition of cancer cells was shown
Rat C6 glioma cells; [11]
  inhibition of cell growth: Inhibition of cancer cell growth
Rat C6 glioma cells; various concentrations, 48 hrs (FIG. 1(a), 2(a)), listed as NBM-HB-HB-OS01
  inhibition of cell growth: Inhibition of cancer cells was shown
[7]; Rat C6 glioma cells, 10 μg/mL for 1, 2, 3 and 4 hrs (FIG. 1(f))
  accumulation of p21: seen in a dose-dependent manner
[7]; [12]
  accumulation of hyperacetylated histone H3: detected in a dose-dependent manner
  accumulation of hyperacetylated histone H4: detected in a dose-dependent manner
  accumulation of p21: detected in a dose-dependent manner
[8]
  p21 mRNA (gene) expression: increased p21 gene expression; also recorded: induced p21 mRNA expression
[9]
  cell cycle arrest phase: arrested the human lung cancer A549 cells on the G0/G1 phase in a dose-dependent manner
[10]
  Gelsolin protein expression: Overexpression of Gelsolin protein was observed; also recorded: could induce the HDAC associated proteins expression
